Results: patent publication US10844077B2, “Thiazolyl-containing compounds for treating proliferative diseases” (Dana-Farber Cancer Institute, Inc., priority 2014, dated 2020)

Key:
broad panel of kinases [1] = target: broad panel of kinases (Homo sapiens, UniProt Q15303); type: binding; settings: ERBB4; 1 μM
broad panel of kinases [2] = target: broad panel of kinases (Homo sapiens, UniProt Q8TF76); type: binding; settings: HASPIN; 1 μM
broad panel of kinases [3] = target: broad panel of kinases (Homo sapiens, UniProt P10721, T670I/V559D); type: binding; settings: KIT(V559D, T670I); 1 μM
Sequence of broad panel of kinases (Homo sapiens, UniProt P10721, T670I/V559D) (P10721 26-976 V559D/T670I limits assumed): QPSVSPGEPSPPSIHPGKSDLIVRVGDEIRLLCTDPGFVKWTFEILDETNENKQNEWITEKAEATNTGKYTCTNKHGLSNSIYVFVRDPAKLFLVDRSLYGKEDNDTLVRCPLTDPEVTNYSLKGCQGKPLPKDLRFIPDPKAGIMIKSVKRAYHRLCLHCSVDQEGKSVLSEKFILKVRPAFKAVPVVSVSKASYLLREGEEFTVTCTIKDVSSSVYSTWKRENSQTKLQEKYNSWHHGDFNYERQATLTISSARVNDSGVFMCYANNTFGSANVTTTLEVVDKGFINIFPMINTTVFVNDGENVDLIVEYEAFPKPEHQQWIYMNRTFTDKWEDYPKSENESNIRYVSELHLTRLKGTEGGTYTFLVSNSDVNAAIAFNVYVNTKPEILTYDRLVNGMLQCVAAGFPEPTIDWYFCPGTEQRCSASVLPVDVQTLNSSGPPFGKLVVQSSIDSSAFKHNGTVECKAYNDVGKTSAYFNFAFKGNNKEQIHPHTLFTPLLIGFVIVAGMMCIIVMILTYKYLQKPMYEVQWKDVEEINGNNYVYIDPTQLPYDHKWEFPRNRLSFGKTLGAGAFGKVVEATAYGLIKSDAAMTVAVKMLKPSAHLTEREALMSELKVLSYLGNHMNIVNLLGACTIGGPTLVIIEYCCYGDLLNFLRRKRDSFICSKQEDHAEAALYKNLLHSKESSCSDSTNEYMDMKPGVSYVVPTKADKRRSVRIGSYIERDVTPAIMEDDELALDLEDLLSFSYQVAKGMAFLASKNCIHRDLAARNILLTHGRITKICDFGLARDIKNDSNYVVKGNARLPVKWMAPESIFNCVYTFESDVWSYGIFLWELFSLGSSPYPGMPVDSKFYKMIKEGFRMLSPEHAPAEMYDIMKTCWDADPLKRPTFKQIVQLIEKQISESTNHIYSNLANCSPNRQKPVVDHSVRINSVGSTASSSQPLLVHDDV

broad panel of kinases [4] = target: broad panel of kinases (Homo sapiens, UniProt Q8TDR2); type: binding; settings: STK35; 1 μM
broad panel of kinases [5] = target: broad panel of kinases (Homo sapiens, UniProt P21709); type: binding; settings: EPHA1; 1 μM
Sequence of broad panel of kinases (Homo sapiens, UniProt P21709) (P21709 26-976 limits assumed): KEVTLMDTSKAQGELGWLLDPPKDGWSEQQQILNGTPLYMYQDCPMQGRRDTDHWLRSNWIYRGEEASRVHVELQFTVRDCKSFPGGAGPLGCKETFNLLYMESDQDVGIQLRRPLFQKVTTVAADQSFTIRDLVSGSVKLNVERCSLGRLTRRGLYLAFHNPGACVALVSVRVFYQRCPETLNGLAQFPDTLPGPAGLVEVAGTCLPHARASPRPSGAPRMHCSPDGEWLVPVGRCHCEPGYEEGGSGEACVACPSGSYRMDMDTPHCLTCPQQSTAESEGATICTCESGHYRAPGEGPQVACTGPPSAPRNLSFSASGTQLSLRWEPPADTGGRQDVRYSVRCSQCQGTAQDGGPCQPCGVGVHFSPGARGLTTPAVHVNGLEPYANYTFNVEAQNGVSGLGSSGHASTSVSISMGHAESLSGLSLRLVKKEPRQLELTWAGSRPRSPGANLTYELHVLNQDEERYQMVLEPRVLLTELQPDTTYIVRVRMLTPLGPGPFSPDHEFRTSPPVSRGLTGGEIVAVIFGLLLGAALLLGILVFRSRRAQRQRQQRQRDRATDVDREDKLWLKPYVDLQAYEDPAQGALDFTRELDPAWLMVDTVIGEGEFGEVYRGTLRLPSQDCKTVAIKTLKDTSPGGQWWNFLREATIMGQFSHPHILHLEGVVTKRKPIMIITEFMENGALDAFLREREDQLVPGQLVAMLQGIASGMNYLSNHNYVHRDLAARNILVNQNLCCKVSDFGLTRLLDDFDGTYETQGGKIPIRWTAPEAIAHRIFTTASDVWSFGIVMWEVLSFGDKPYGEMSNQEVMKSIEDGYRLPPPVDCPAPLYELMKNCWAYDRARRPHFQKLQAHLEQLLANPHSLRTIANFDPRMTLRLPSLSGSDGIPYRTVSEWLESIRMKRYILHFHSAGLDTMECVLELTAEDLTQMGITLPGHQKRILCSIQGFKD

kinases in BCWM.1 cells [6] = target: kinases in BCWM.1 cells (Homo sapiens, UniProt Q16512); assay: KINATIV assay of compounds I-3 and I-9, lysate directly labeled with ATP-biotin probe (no GF); type: cell-based; settings: PKN1; Lys1; 1 μM, 90 min; no GF
Experimental: (§1) The cells were harvested and lysed. […] Bound kinases were identified and quantitated by ACTIVX as described in Patricelli et al., Biochemistry, 2007, 46(2): 350-358. The compounds were tested in duplicates against duplicate or quadruplicate control samples.

kinases in BCWM.1 cells [7] = target: kinases in BCWM.1 cells (Homo sapiens, UniProt Q16816); assay: as above; type: cell-based; settings: PHKg1; Protein Kinase Domain; 1 μM, 90 min; no GF
Experimental: as §1

kinases in BCWM.1 cells [8] = target: kinases in BCWM.1 cells (Homo sapiens, UniProt P23443); assay: as above; type: cell-based; settings: p70S6K; Lys2; 1 μM, 90 min; no GF
Experimental: as §1

kinases in BCWM.1 cells [9] = target: kinases in BCWM.1 cells (Homo sapiens, UniProt Q9UBF8); assay: as above; type: cell-based; settings: PI4KB; ATP; 1 μM, 90 min; no GF
Sequence of kinases in BCWM.1 cells (Homo sapiens, UniProt Q9UBF8) (Q9UBF8 2-816 limits assumed): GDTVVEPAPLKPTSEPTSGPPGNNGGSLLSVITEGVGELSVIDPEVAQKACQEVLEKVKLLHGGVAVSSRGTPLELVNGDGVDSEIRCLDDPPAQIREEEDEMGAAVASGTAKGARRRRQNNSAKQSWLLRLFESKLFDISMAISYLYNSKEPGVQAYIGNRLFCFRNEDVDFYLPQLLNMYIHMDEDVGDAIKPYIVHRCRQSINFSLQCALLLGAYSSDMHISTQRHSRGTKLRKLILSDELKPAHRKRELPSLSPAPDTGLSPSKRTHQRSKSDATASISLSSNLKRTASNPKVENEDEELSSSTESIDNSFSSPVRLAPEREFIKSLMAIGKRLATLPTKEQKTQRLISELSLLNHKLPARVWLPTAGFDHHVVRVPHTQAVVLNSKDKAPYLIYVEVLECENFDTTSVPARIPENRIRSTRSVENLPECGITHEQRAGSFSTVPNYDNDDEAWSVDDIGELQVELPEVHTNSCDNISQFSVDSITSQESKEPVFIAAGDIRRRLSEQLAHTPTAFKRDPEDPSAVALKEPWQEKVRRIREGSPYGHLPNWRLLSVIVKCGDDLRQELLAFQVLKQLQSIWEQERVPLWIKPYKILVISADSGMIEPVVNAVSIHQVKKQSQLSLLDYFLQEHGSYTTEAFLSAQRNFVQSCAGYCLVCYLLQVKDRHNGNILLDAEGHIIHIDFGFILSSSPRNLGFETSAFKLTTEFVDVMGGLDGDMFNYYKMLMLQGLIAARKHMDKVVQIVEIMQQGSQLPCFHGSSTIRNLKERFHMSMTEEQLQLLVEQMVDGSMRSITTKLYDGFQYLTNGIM
Experimental: as §1

kinases in BCWM.1 cells [10] = target: kinases in BCWM.1 cells (Homo sapiens, UniProt Q9BZL6); assay: as above; type: cell-based; settings: PKD2; Lys1; 1 μM, 90 min; no GF
Experimental: as §1

kinases in BCWM.1 cells [11] = target: kinases in BCWM.1 cells (Homo sapiens, UniProt Q15349); assay: as above; type: cell-based; settings: RSK3 domain1; Lys2; 1 μM, 90 min; no GF
Experimental: as §1

kinases in BCWM.1 cells [12] = target: kinases in BCWM.1 cells (Homo sapiens, UniProt Q9UKI8); assay: as above; type: cell-based; settings: TLK1; Lys2; 1 μM, 90 min; no GF
Experimental: as §1

kinases in BCWM.1 cells [13] = target: kinases in BCWM.1 cells (Homo sapiens, UniProt Q13464); assay: as above; type: cell-based; settings: ROCK1; Protein Kinase Domain; 1 μM, 90 min; no GF
Sequence of kinases in BCWM.1 cells (Homo sapiens, UniProt Q13464) (Q13464 2-1354 limits assumed): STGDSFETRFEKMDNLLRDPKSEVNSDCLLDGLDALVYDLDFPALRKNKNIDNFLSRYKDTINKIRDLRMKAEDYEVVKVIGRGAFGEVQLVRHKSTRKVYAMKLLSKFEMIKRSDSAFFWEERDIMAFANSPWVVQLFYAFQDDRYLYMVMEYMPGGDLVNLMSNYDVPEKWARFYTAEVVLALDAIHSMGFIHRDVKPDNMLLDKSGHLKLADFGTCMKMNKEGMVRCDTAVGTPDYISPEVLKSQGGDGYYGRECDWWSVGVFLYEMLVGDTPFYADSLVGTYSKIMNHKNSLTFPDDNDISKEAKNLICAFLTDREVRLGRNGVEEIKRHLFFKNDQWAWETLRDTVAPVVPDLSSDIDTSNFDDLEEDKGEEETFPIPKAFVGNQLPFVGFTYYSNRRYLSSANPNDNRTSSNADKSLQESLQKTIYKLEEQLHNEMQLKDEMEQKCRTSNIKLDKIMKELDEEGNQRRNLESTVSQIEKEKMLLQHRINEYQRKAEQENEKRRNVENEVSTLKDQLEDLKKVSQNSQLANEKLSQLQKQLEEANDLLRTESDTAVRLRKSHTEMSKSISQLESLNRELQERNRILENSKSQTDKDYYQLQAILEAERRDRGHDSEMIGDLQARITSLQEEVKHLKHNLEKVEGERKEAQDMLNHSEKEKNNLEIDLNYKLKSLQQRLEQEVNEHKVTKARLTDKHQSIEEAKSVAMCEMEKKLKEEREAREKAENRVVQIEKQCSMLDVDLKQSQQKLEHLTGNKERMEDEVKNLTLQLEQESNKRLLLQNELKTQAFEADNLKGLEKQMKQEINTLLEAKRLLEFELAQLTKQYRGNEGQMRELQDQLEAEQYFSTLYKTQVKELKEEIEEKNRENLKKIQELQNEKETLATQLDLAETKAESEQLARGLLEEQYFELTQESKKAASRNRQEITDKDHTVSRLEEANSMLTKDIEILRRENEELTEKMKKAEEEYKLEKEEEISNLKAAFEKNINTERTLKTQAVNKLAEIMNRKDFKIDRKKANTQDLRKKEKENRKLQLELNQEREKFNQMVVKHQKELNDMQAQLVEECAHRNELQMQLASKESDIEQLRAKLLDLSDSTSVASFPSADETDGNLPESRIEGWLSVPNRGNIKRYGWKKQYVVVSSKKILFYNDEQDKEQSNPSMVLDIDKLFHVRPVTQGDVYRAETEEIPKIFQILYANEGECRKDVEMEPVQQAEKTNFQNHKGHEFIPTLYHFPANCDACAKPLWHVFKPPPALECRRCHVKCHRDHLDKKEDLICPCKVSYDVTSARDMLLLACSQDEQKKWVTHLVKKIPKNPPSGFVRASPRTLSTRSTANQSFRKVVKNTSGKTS
Experimental: as §1

kinases in BCWM.1 cells [14] = target: kinases in BCWM.1 cells (Homo sapiens, UniProt P19525); assay: as above; type: cell-based; settings: PKR; Lys2; 1 μM, 90 min; no GF
Experimental: as §1

kinases in BCWM.1 cells [15] = target: kinases in BCWM.1 cells (Homo sapiens, UniProt P48426); assay: as above; type: cell-based; settings: PIP4K2A; ATP; 1 μM, 90 min; no GF
Sequence of kinases in BCWM.1 cells (Homo sapiens, UniProt P48426) (P48426 2-406 limits assumed): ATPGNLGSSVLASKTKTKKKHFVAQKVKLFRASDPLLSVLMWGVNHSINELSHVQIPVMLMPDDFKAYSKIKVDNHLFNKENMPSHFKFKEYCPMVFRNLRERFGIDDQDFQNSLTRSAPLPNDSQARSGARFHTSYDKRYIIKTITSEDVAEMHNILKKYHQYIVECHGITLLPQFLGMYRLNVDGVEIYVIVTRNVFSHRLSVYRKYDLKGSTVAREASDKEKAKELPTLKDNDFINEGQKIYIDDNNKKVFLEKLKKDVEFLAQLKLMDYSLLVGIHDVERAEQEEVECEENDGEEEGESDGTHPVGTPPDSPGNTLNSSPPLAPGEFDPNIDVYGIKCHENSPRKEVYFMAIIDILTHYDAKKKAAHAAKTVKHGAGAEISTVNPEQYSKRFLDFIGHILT
Experimental: as §1

kinases in BCWM.1 cells [16] = target: kinases in BCWM.1 cells (Homo sapiens, UniProt P12931); assay: as above; type: cell-based; settings: SRC; Lys1; 1 μM, 90 min; no GF
Experimental: as §1

kinases in BCWM.1 cells [17] = target: kinases in BCWM.1 cells (Homo sapiens, UniProt P30291); assay: as above; type: cell-based; settings: Wee1; Lys2; 1 μM, 90 min; no GF
Experimental: as §1

kinases in BCWM.1 cells [18] = target: kinases in BCWM.1 cells (Homo sapiens, UniProt Q7RTN6); assay: as above; type: cell-based; settings: STLK5; Activation Loop; 1 μM, 90 min; no GF
Experimental: as §1

kinases in BCWM.1 cells [19] = target: kinases in BCWM.1 cells (Homo sapiens, UniProt Q86Y07); assay: as above; type: cell-based; settings: VRK2; Lys2; 1 μM, 90 min; no GF
Experimental: as §1

kinases in BCWM.1 cells [20] = target: kinases in BCWM.1 cells (Homo sapiens, UniProt Q9Y572); assay: as above; type: cell-based; settings: RIPK3; Lys2; 1 μM, 90 min; no GF
Experimental: as §1

kinases in BCWM.1 cells [21] = target: kinases in BCWM.1 cells (Homo sapiens, UniProt Q9UL54); assay: as above; type: cell-based; settings: TAO2; Lys2; 1 μM, 90 min; no GF
Experimental: as §1

kinases in BCWM.1 cells [22] = target: kinases in BCWM.1 cells (Homo sapiens, UniProt P51955); assay: as above; type: cell-based; settings: NEK2; Lys2; 1 μM, 90 min; no GF
Experimental: as §1

kinases in BCWM.1 cells [23] = target: kinases in BCWM.1 cells (Homo sapiens, UniProt Q9Y2I7); assay: as above; type: cell-based; settings: PIP5K3; ATP; 1 μM, 90 min; no GF
Experimental: as §1

kinases in BCWM.1 cells [24] = target: kinases in BCWM.1 cells (Homo sapiens, UniProt Q96Q15); assay: as above; type: cell-based; settings: SMG1; ATP; 1 μM, 90 min; no GF
Experimental: as §1

kinases in BCWM.1 cells [25] = target: kinases in BCWM.1 cells (Homo sapiens, UniProt Q13523); assay: as above; type: cell-based; settings: PRP4; Lys2; 1 μM, 90 min; no GF
Experimental: as §1

kinases in BCWM.1 cells [26] = target: kinases in BCWM.1 cells (Homo sapiens, UniProt Q9NRH2); assay: as above; type: cell-based; settings: SNRK; Lys2; 1 μM, 90 min; no GF
Experimental: as §1

kinases in BCWM.1 cells [27] = target: kinases in BCWM.1 cells (Homo sapiens, UniProt Q00536); assay: as above; type: cell-based
Experimental: as §1

kinases in BCWM.1 cells [28] = target: kinases in BCWM.1 cells (Homo sapiens, UniProt Q8TBX8); assay: as above; type: cell-based; settings: PIP4K2C; ATP; 1 μM, 90 min; no GF
Sequence of kinases in BCWM.1 cells (Homo sapiens, UniProt Q8TBX8) (Q8TBX8 2-421 limits assumed): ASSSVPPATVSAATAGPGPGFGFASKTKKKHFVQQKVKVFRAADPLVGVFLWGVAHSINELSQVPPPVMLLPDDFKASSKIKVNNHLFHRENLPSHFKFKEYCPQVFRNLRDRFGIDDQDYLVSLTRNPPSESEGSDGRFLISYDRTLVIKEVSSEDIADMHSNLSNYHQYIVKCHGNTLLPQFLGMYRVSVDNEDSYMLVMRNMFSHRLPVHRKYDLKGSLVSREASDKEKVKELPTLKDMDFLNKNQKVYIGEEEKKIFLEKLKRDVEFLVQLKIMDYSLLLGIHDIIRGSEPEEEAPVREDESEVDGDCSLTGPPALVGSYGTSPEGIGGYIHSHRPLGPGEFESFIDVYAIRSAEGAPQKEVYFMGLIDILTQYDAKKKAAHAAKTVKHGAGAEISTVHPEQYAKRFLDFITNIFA
Experimental: as §1

kinases in BCWM.1 cells [29] = target: kinases in BCWM.1 cells (Homo sapiens, UniProt P51812); assay: as above; type: cell-based; settings: Lys2, 1 μM, 90 min, no GF
Experimental: as §1

| Compound | percent of control binding remaining (lower = stronger binding) (broad panel of kinases [1]) [%] | percent of control binding remaining (lower = stronger binding) (broad panel of kinases [2]) [%] | percent of control binding remaining (lower = stronger binding) (broad panel of kinases [3]) [%] | percent of control binding remaining (lower = stronger binding) (broad panel of kinases [4]) [%] | percent of control binding remaining (lower = stronger binding) (broad panel of kinases [5]) [%] | % change of MS signal compared to control sample (kinases in BCWM.1 cells [6]) [%] | % change of MS signal compared to control sample (kinases in BCWM.1 cells [7]) [%] | % change of MS signal compared to control sample (kinases in BCWM.1 cells [8]) [%] | % change of MS signal compared to control sample (kinases in BCWM.1 cells [9]) [%] | % change of MS signal compared to control sample (kinases in BCWM.1 cells [10]) [%] | % change of MS signal compared to control sample (kinases in BCWM.1 cells [11]) [%] | % change of MS signal compared to control sample (kinases in BCWM.1 cells [12]) [%] | % change of MS signal compared to control sample (kinases in BCWM.1 cells [13]) [%] | % change of MS signal compared to control sample (kinases in BCWM.1 cells [14]) [%] | % change of MS signal compared to control sample (kinases in BCWM.1 cells [15]) [%] | % change of MS signal compared to control sample (kinases in BCWM.1 cells [16]) [%] | % change of MS signal compared to control sample (kinases in BCWM.1 cells [17]) [%] | % change of MS signal compared to control sample (kinases in BCWM.1 cells [18]) [%] | % change of MS signal compared to control sample (kinases in BCWM.1 cells [19]) [%] | % change of MS signal compared to control sample (kinases in BCWM.1 cells [20]) [%] | also measured |
| --- | --- | --- | --- | --- | --- | --- | --- | --- | --- | --- | --- | --- | --- | --- | --- | --- | --- | --- | --- | --- | --- |
| C=CC(=O)N1CC[C@H](Nc2nc(CN3CCOCC3)cc(Nc3ncc(C(=O)Nc4c(C)cccc4C)s3)n2)C1 [Example I-2] | 0.6 | 100 | 100 | 99 | 0.5 |  |  |  |  |  |  |  |  |  |  |  |  |  |  |  |  |
| C=CC(=O)N1CC[C@H](Nc2nccc(Nc3ncc(C(=O)Nc4c(C)cccc4C)s3)n2)C1 [Example I-3] | 0.2 | 88 | 100 | 100 | 1.6 | −3.3 | 31.7 | −77.2 | 6.4 | 5.5 | 7.6 | −0.7 | 2.6 | −3.6 | −4.9 | 91.7 | −32.7 | 10.4 | −13.9 | 13.4 | % change of MS signal compared to control sample (kinases in BCWM.1 cells [21]): 5%; % change of MS signal compared to control sample (kinases in BCWM.1 cells [22]): 20.5%; % change of MS signal compared to control sample (kinases in BCWM.1 cells [23]): 6.5%; % change of MS signal compared to control sample (kinases in BCWM.1 cells [24]): 0.6%; % change of MS signal compared to control sample (kinases in BCWM.1 cells [25]): 5.9%; % change of MS signal compared to control sample (kinases in BCWM.1 cells [26]): 46.4%; % change of MS signal compared to control sample (kinases in BCWM.1 cells [27]): 10%; % change of MS signal compared to control sample (kinases in BCWM.1 cells [28]): −14.1%; % change of MS signal compared to control sample (kinases in BCWM.1 cells [29]; RSK2 domain1): −2%; % change of MS signal compared to control sample (kinases in BCWM.1 cells [29]; RSK2 domain2): −10.2% |
| CCC(=O)N1CC[C@H](Nc2nccc(Nc3ncc(C(=O)Nc4c(C)cccc4C)s3)n2)C1 [Example I-9] |  |  |  |  |  | −4.9 | −51 | 15.9 | −24.3 | −11 | −1.4 | −7.9 | −7.3 | −8 | −10.5 | 78.6 | 14.3 | −12.9 | 6.2 | −15 | % change of MS signal compared to control sample (kinases in BCWM.1 cells [21]): 4.3%; % change of MS signal compared to control sample (kinases in BCWM.1 cells [22]): −8.2%; % change of MS signal compared to control sample (kinases in BCWM.1 cells [23]): −6.7%; % change of MS signal compared to control sample (kinases in BCWM.1 cells [24]): −11.6%; % change of MS signal compared to control sample (kinases in BCWM.1 cells [25]): −24.8%; % change of MS signal compared to control sample (kinases in BCWM.1 cells [26]): 28.6%; % change of MS signal compared to control sample (kinases in BCWM.1 cells [27]): 4.1%; % change of MS signal compared to control sample (kinases in BCWM.1 cells [28]): 10%; % change of MS signal compared to control sample (kinases in BCWM.1 cells [29]; RSK2 domain1): −5.6%; % change of MS signal compared to control sample (kinases in BCWM.1 cells [29]; RSK2 domain2): −9.7% |
